# Measurements as given in US20070031534A1, “Pet food for reducing food allergy reactions” (priority 2004, published 2007).
# System: dogs subject to food allergies
# Assay: Owner-marked itching scores of dogs subject to food allergies fed with the dog food
# Assay type: in vivo
# Conditions: case No.1, before feeding with the dog food
# Protocol: A dog food (dog food for food allergy) composed of raw materials as listed in Table 3 and Table 4 below was prepared according to the above Example 1. Dogs subject to food allergies were fed with this dog food and then the itching scores of these dogs were determined.
# The following 2 cases are described in detail. (a) Detailed description of case No.1 (i) Changes (−1) in itching scores
smiles,measurement,value
C[C@]12C=CC(=O)C=C1CC[C@@H]1[C@@H]2[C@@H](O)C[C@@]2(C)[C@H]1CC[C@]2(O)C(=O)CO [predonine],itching on administration of steroid drug,further suppressed
